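Following 48 hours of exposure in 96-well plates, responses at five concentrations were used to interpolate endpoints linearly. TGI denotes the concentration required for complete inhibition of growth.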
Key:
Experiment in all cases: NCI tumour cell line growth inhibition, 48 h
[1] = tested on: CAKI-1 renal
[2] = tested on: SF-539 CNS
[3] = tested on: SNB-19 CNS
[4] = tested on: NCI-H460 lung
[5] = tested on: SN12C renal
[6] = tested on: HCC-2998 colon
[7] = tested on: KM20L2 colon
[8] = tested on: SK-MEL-2 melanoma
[9] = tested on: UO-31 renal
[10] = tested on: CCRF-CEM leukemia
[11] = tested on: ACHN renal
[12] = tested on: RXF 393 renal
[13] = tested on: LOX IMVI melanoma
[14] = tested on: K-562 leukemia
[15] = tested on: UACC-257 melanoma
[16] = tested on: HT29 colon
[17] = tested on: HCT-15 colon
[18] = tested on: OVCAR-8 ovarian
[19] = tested on: LXFL 529 NSCLC
[20] = tested on: SW-620 colon
[21] = tested on: OVCAR-3 ovarian
[22] = tested on: KM12 colon
[23] = tested on: M14 melanoma
[24] = tested on: OVCAR-5 ovarian
[25] = tested on: DMS 273 small cell lung
[26] = tested on: EKVX NSCLC
[27] = tested on: SF-295 CNS
[28] = tested on: SK-MEL-28 melanoma
[29] = tested on: SNB-75 CNS
[30] = tested on: NCI-H522 lung
[31] = tested on: DLD-1 colon
[32] = tested on: UACC-62 melanoma
[33] = tested on: HL-60(TB) leukemia
[34] = tested on: A549 NSCLC
[35] = tested on: HOP-92 NSCLC
[36] = tested on: M19-MEL melanoma
[37] = tested on: SK-OV-3 ovarian
[38] = tested on: IGROV1 ovarian
[39] = tested on: NCI-H23 lung
[40] = tested on: HOP-18 NSCLC
[41] = tested on: OVCAR-4 ovarian
[42] = tested on: 786-0 renal
[43] = tested on: TK-10 renal
[44] = tested on: U251 CNS
[45] = tested on: DMS 114 small cell lung
[46] = tested on: SK-MEL-5 melanoma
[47] = tested on: COLO 205 colon
[48] = tested on: HOP-62 NSCLC
[49] = tested on: SF-268 CNS
[50] = tested on: RXF-631 renal
[51] = tested on: XF 498 CNS
[52] = tested on: MOLT-4 leukemia
[53] = tested on: HCT-116 colon
[54] = tested on: SNB-78 CNS
[55] = tested on: MALME-3M melanoma
[56] = tested on: A498 renal
[57] = tested on: RPMI-8226 leukemia
[58] = tested on: NCI-H226 lung
[59] = tested on: MCF7 breast
[60] = tested on: SN12K1 renal
[61] = tested on: P388 leukemia

c1ccc(P(=C2c3ccccc3-c3ccccc32)(c2ccccc2)c2ccccc2)cc1 was tested, and the TGI [1] was greater than 100 µM, the TGI [2] was 36.7 µM and the TGI [3] was greater than 100 µM. It also gave a TGI [4] of 19.2 µM, a TGI [5] of 10.9 µM and a TGI [6] of 15.3 µM. For the same molecule, the TGI [7] was 8.21 µM, the TGI [8] was 23.5 µM and the TGI [9] was 70.7 µM. It also gave a TGI [10] of 8.34 µM, a TGI [11] of 9.82 µM and a TGI [12] of 93.8 µM. It also gave a TGI [13] of 9.38 µM, a TGI [14] of 6 µM and a TGI [15] of 27.3 µM. The TGI [16] was 10.4 µM, the TGI [17] was 52.2 µM and the TGI [18] was 12.7 µM. The TGI [19] was 20 µM, the TGI [20] was 10.4 µM and the TGI [21] was 6.13 µM. For the same molecule, the TGI [22] was 5.58 µM, the TGI [23] was 32.6 µM and the TGI [24] was 48.3 µM. It also gave a TGI [25] of 19.2 µM, a TGI [26] of 61.3 µM and a TGI [27] of 16.1 µM. It also gave a TGI [28] of 20.2 µM, a TGI [29] of 83.8 µM and a TGI [30] of 4.62 µM. The TGI [31] was 65.5 µM, the TGI [32] was 14.1 µM and the TGI [33] was 4.36 µM. For the same molecule, the TGI [34] was 29.6 µM, the TGI [35] was 7.4 µM and the TGI [36] was 20.3 µM. For the same molecule, the TGI [37] was 80.1 µM, the TGI [38] was greater than 100 µM and the TGI [39] was 9.97 µM. For the same molecule, the TGI [40] was 80 µM, the TGI [41] was greater than 100 µM and the TGI [42] was 34 µM. For the same molecule, the TGI [43] was 52.2 µM, the TGI [44] was 9.18 µM and the TGI [45] was 7.78 µM. For the same molecule, the TGI [46] was 3.96 µM, the TGI [47] was 15 µM and the TGI [48] was 8.17 µM. The TGI [49] was 69 µM and the TGI [50] was 28.9 µM.
In the case of CN(/N=C/c1cccc2cccnc12)c1c([N+](=O)[O-])cc([N+](=O)[O-])cc1[N+](=O)[O-], the TGI [1] is reported as greater than 100 µM, the TGI [2] is reported as greater than 100 µM and the TGI [3] is reported as greater than 100 µM. The TGI [4] was greater than 100 µM, the TGI [5] was greater than 100 µM and the TGI [51] was greater than 100 µM. It also gave a TGI [6] greater than 100 µM, a TGI [7] greater than 100 µM and a TGI [8] greater than 100 µM. The TGI [52] was greater than 100 µM, the TGI [11] was greater than 100 µM and the TGI [12] was greater than 100 µM. It also gave a TGI [13] greater than 100 µM, a TGI [14] greater than 100 µM and a TGI [15] greater than 100 µM. It also gave a TGI [16] greater than 100 µM, a TGI [17] greater than 100 µM and a TGI [18] greater than 100 µM. The TGI [19] was greater than 100 µM, the TGI [20] was greater than 100 µM and the TGI [21] was greater than 100 µM. The TGI [22] was greater than 100 µM, the TGI [23] was greater than 100 µM and the TGI [24] was greater than 100 µM. The TGI [25] was greater than 100 µM, the TGI [26] was greater than 100 µM and the TGI [27] was greater than 100 µM. The TGI [28] was greater than 100 µM, the TGI [29] was greater than 100 µM and the TGI [53] was greater than 100 µM. It also gave a TGI [31] greater than 100 µM, a TGI [32] greater than 100 µM and a TGI [33] greater than 100 µM. The TGI [34] was greater than 100 µM, the TGI [35] was greater than 100 µM and the TGI [36] was greater than 100 µM. The TGI [37] was greater than 100 µM, the TGI [38] was greater than 100 µM and the TGI [39] was greater than 100 µM. It also gave a TGI [40] greater than 100 µM, a TGI [41] greater than 100 µM and a TGI [54] greater than 100 µM. It also gave a TGI [42] greater than 100 µM, a TGI [43] greater than 100 µM and a TGI [44] greater than 100 µM. It also gave a TGI [45] greater than 100 µM, a TGI [55] greater than 100 µM and a TGI [46] greater than 100 µM. It also gave a TGI [47] greater than 100 µM, a TGI [48] greater than 100 µM and a TGI [56] greater than 100 µM. For the same molecule, the TGI [49] was greater than 100 µM, the TGI [57] was greater than 100 µM and the TGI [58] was greater than 100 µM. For the same molecule, the TGI [50] was greater than 100 µM.
With COc1cc(C2c3cc4c(cc3[C@@H](Oc3ccc(F)cc3)C3COC(=O)[C@H]23)OCO4)cc(OC)c1O (stereo not given in full) the TGI [1] was 14.5 µM, the TGI [4] was 25.4 µM and the TGI [5] was greater than 100 µM. For the same molecule, the TGI [6] was greater than 100 µM, the TGI [7] was greater than 100 µM and the TGI [8] was greater than 100 µM. For the same molecule, the TGI [9] was greater than 100 µM, the TGI [10] was greater than 23.2 µM and the TGI [52] was 4.66 µM. For the same molecule, the TGI [13] was greater than 100 µM, the TGI [14] was 30.4 µM and the TGI [15] was 22.8 µM. It also gave a TGI [16] of 20 µM, a TGI [17] greater than 100 µM and a TGI [18] greater than 100 µM. For the same molecule, the TGI [20] was greater than 100 µM, the TGI [21] was 72.3 µM and the TGI [22] was 27.9 µM. It also gave a TGI [24] greater than 100 µM, a TGI [59] greater than 58 µM and a TGI [25] of 47.2 µM. It also gave a TGI [26] greater than 100 µM, a TGI [27] greater than 60 µM and a TGI [28] greater than 100 µM. For the same molecule, the TGI [53] was greater than 100 µM, the TGI [30] was greater than 100 µM and the TGI [31] was greater than 100 µM. For the same molecule, the TGI [32] was greater than 100 µM, the TGI [33] was 1.06 µM and the TGI [60] was greater than 100 µM. It also gave a TGI [34] greater than 100 µM, a TGI [35] greater than 100 µM and a TGI [36] of 40.4 µM. For the same molecule, the TGI [38] was greater than 100 µM, the TGI [39] was greater than 100 µM and the TGI [40] was greater than 100 µM. It also gave a TGI [41] greater than 100 µM, a TGI [61] greater than 21.2 µM and a TGI [44] greater than 100 µM. For the same molecule, the TGI [55] was 31.8 µM, the TGI [46] was 10.9 µM and the TGI [47] was 4.86 µM. It also gave a TGI [48] of 0.95 µM, a TGI [49] greater than 100 µM and a TGI [57] of 6.64 µM.
